Data on 2 compounds can be found in publication PMC4648258 (ACS infectious diseases, 2015).

The test system of data set [1] is M. tuberculosis H37Rv. The data set can be described thus: microplate Alamar Blue assay. Format: cell-based. The note with it: Mycobacterium tuberculosis. A general note: The colour change of resazurin is a common sign of viable cells or microbes.
The target of data set [2] is human ThyA (HsThyA) (Homo sapiens, UniProt P04818). The data set can be described thus: cell-free ThyA and ThyX enzyme inhibition assay. Format: biochemical. The note with it: purified HsThyA, inhibitor 13 μM, compared to positive control 1843U89.
Data set [3] deals with M. bovis BCG. In kind it is cell-based.
Data set [4] concerns B. anthracis. Format: cell-based.
Data set [5] relates to B. thuringiensis. The data set can be described thus: MIC, Gram-positive panel. In kind it is cell-based.
In data set [6] the test system is M. smegmatis. The data set can be described thus: broth microdilution, A570 readout, non-tuberculosis mycobacteria. Format: cell-based.
Data set [7] deals with P. mirabilis. The data set can be described thus: MIC, Gram-negative panel. Format: cell-based.
Data set [8] concerns Staphylococcus aureus strains (FDA209P, ATCC6538P, KB199). Particulars: three Staphylococcus aureus strains (FDA209P, ATCC6538P, KB199); cited from earlier work.
Data set [9] concerns K. pneumoniae. As to the kind of experiment: MIC, Gram-negative panel. Format: cell-based.
The subject of data set [10] is P. aeruginosa. As to the kind of experiment: MIC, Gram-negative panel. Format: cell-based.
Data set [11] deals with E. coli. As to the kind of experiment: MIC, Gram-negative panel. Format: cell-based.
For data set [12], the system named is A. baumannii. As to the kind of experiment: MIC, Gram-negative panel. In kind it is cell-based.
The test system of data set [13] is E. faecalis. The data set can be described thus: MIC, Gram-positive panel. Format: cell-based.
The subject of data set [14] is S. pyogenes. The data set can be described thus: MIC, Gram-positive panel. Format: cell-based.
Data set [15] has as its system Streptococcus faecium IFO3181. The note with it: cited from earlier work.
The subject of data set [16] is B. subtilis. The data set can be described thus: MIC, Gram-positive panel. In kind it is cell-based.
The conditions of data set [17]: previous study ref 18; cited from earlier work.
For data set [18], the system named is M. tuberculosis. The data set can be described thus: LORA MBC99, hypoxic. Format: cell-based, Mycobacterium tuberculosis. Particulars: hypoxic conditions (LORA).
Data set [19] has as its system nonreplicating M. tuberculosis H37Rv. Format: cell-based, Mycobacterium tuberculosis.
Data set [20] has as its system E. faecium. The data set can be described thus: MIC, Gram-positive panel. In kind it is cell-based.
Data set [21] in a line: in vivo tolerance assessment, oral gavage. Further details: species or system female BALB/c mice. The note with it: 100 mg/kg daily by oral gavage for 5 days, uninfected mice.
The test system of data set [22] is Caco-2. As to the kind of experiment: Caco-2 bidirectional permeability. Format: in vitro ADME. Particulars: Caco-2, 5 μM. (Caco-2 cells form a polarised layer with tight junctions and transporters.)
Data set [23] has as its system B. cereus 10987. The data set can be described thus: MIC, Gram-positive panel. In kind it is cell-based.
Data set [24] addresses thymidylate synthase (E. faecium). The note with it: competitive with coenzyme 5,10-methylenetetrahydrofolate; cited from earlier work.
Data set [25] concerns M. marinum. As to the kind of experiment: broth microdilution, A570 readout, non-tuberculosis mycobacteria. In kind it is cell-based. In general terms: Broth dilution looks for growth in wells or tubes with falling amounts of substance.
Data set [26] deals with VRE (Vancomycin-resistant E. faecium). As to the kind of experiment: MIC, Gram-positive panel. In kind it is cell-based.
For data set [27] the following is noted: 100 mg/kg intraperitoneally; deposited solid residues; cited from earlier work.
In data set [28] the test system is E. cloacae. The data set can be described thus: MIC, Gram-negative panel. Format: cell-based.
Data set [29] deals with M. kansasii. The data set can be described thus: broth microdilution, A570 readout, non-tuberculosis mycobacteria. Format: cell-based.
The test system of data set [30] is M. chelonae. The description is as above. Format: cell-based.
Data set [31] is described as follows: liver microsome stability. Format: in vitro ADME. The note with it: 1 μM, 30 min, 0.5 mg/mL mouse liver microsomes.
Data set [32] is described as follows: liver microsome stability. The note with it: 1 μM, 30 min, 0.5 mg/mL human liver microsomes. In kind it is in vitro ADME.
Data set [33] deals with Micrococcus luteus. Particulars: cited from earlier work.
Data set [34] concerns the target M. tuberculosis ThyA (MtThyA) (Mycobacterium tuberculosis, UniProt P9WFR9). As to the kind of experiment: cell-free ThyA and ThyX enzyme inhibition assay. Format: biochemical.
The subject of data set [35] is B. cereus 14579. The data set can be described thus: MIC, Gram-positive panel. Format: cell-based.
For data set [36], the target named is MtThyX (Mycobacterium tuberculosis, UniProt P9WG57). The data set can be described thus: cell-free ThyA and ThyX enzyme inhibition assay. Format: biochemical, M. tuberculosis.
Data set [37] has as its system S. pneumoniae. The data set can be described thus: MIC, Gram-positive panel. In kind it is cell-based.
Data set [38] is described as follows: solubility. In kind it is physicochemical. Particulars: current study.
In data set [39] the test system is M. tuberculosis. Format: cell-based.
The test system of data set [40] is M. avium. As to the kind of experiment: broth microdilution, A570 readout, non-tuberculosis mycobacteria. In kind it is cell-based.
Data set [41] relates to M. abscessus. The data set is described as above. Format: cell-based.

Converted amounts (≈) assume the structure as drawn.

human ThyA (HsThyA), sequence (P04818 whole entry): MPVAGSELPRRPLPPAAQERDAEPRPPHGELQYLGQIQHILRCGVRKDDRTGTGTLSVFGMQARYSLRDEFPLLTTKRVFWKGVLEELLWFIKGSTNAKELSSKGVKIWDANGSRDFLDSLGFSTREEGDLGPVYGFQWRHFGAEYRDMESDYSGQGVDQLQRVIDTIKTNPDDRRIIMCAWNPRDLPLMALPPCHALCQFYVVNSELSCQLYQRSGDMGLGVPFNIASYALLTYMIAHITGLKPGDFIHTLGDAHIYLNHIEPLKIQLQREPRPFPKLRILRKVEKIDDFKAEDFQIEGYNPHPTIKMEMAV
MtThyX, sequence (P9WG57 whole entry): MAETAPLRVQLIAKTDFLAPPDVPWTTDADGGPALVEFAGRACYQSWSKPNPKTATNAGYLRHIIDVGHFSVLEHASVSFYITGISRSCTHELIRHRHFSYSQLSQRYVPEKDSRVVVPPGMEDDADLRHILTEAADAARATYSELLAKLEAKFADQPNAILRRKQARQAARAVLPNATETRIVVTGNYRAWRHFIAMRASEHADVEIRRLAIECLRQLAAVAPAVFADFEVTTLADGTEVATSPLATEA
M. tuberculosis ThyA (MtThyA), sequence (P9WFR9 whole entry): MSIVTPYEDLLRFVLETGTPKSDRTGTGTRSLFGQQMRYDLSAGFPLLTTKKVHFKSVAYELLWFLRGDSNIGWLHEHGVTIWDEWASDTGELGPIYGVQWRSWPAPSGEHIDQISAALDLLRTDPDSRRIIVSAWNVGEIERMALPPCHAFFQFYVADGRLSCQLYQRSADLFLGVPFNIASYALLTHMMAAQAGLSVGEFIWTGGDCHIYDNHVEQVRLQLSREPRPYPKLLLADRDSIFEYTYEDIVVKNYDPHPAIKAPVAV

Broadly, the MIC is the lowest concentration found to suppress growth. In the case of `O=[N+]([O-])c1cn2c(n1)OC[C@@H](OCc1ccc(OC(F)(F)F)cc1)C2` [PA824], the MIC in data set [1] worked out at 0.01 µg/mL (≈ 0.0278 µM).

As usually defined, the efflux ratio is a quotient of directional permeabilities that is used to spot active efflux. A word on the Ki: it is a measure of affinity in units of concentration, obtained from inhibition or displacement. Turning to `CCCc1c2c([nH]c(=O)c1C)C(=O)c1[nH]c(=O)c(C)c(CCC)c1C2=O` [Compound 3, diazaquinomycin A], the “inhibition of enzyme activity” value in data set [2], in [34] and in data set [36] was “did not significantly inhibit” each time. For the same compound, the MIC is 0.12 µg/mL (≈ 0.339 µM) in data set [3]; 6.25 µg/mL (≈ 17.6 µM) in data set [4]; 25 µg/mL (≈ 70.5 µM) in [5]; 4.56 µg/mL (≈ 12.9 µM) in [6]; 64 µg/mL (≈ 181 µM) in data set [7]; 6.25 µg/mL (≈ 17.6 µM) in data set [8]. For the same compound, the MIC in [9] is 128 µg/mL (≈ 361 µM); in data set [10], 128 µg/mL (≈ 361 µM); in data set [11], 128 µg/mL (≈ 361 µM); in [12] it was 128 µg/mL (≈ 361 µM); in data set [13], 8 µg/mL (≈ 22.6 µM); in [14], greater than 25 µg/mL. Further, the MIC was 6.25 µg/mL (≈ 17.6 µM) in data set [15]; 100 µg/mL (≈ 282 µM) in [16]; 0.72 µg/mL (≈ 2.03 µM) in [19]; 8 µg/mL (≈ 22.6 µM) in [20]; 12.5 µg/mL (≈ 35.3 µM) in [23]; greater than 7.5 µg/mL in data set [25]. Moreover, the MIC was 32 µg/mL (≈ 90.3 µM) in [26]; 64 µg/mL (≈ 181 µM) in [28]; greater than 7.5 µg/mL in data set [29]; greater than 7.5 µg/mL in [30]; 1.13 µg/mL (≈ 3.19 µM) in data set [33]; 25 µg/mL (≈ 70.5 µM) in [35]. Also, the MIC in data set [37] is greater than 10 µg/mL; in data set [40], 3.85 µg/mL (≈ 10.9 µM); in data set [41], greater than 7.5 µg/mL. Also, in [17], the “maximum room temperature concentration in water” value was 0.15 µg/mL. Moreover, the MBC99 entry in [18] is on record as “did not exhibit a significant MBC99”. Further, the tolerance in vivo entry in [21] was “well tolerated”. For the same compound, the efflux ratio in [22] is 0.2. Besides, the “permeability (from apical to basolateral)” value in data set [22] was found to be 44 nm/s. Moreover, the “permeability (from basolateral to apical)” value in data set [22] came out at 9 nm/s. The “recovery (from apical to basolateral)” value in data set [22] is reported as 82%. In addition, the “recovery (from basolateral to apical)” value in data set [22] stood at 98%. For the same compound, the Ki in data set [24] was 36 µM. Besides, the toxicity in vivo result in [27] is “acute toxicity”. Moreover, the results for the parent compound remaining in data set [31] and in data set [32] were 98% and 96%, respectively. Moreover, in data set [38], the “maximum room temperature concentration in DMSO” value was found to be 600 µg/mL. Besides, the “reversal of antibiotic properties by thymidine” value in data set [39] is “no reversal”.
